Measured values: ChEMBL document CHEMBL1201862, “PubChem BioAssay data set” (2004)
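48-hour exposure; five concentrations; linearly interpolated endpoints. At the GI50, growth is halved.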 Active and inactive are the calls of the source. No stated cut-off is given here; in the data, active = GI50 up to about 1.1 µM and inactive = higher.

Legend:
Experiment in all cases: NCI-60 cell line screen, 48 h
RPMI-8226 = test system: RPMI-8226
NCI-H226 = test system: NCI-H226
ACHN = test system: ACHN
EKVX = test system: EKVX
TK-10 = test system: TK-10
T47D = test system: T47D
A498 = test system: A498
PC-3 = test system: PC-3
MDA-N = test system: MDA-N
MDA-MB-231 = test system: MDA-MB-231
HL-60 = test system: HL-60
SR = test system: SR
BT-549 = test system: BT-549
DU-145 = test system: DU-145
XF498 = test system: XF498
KM-20L2 = test system: KM-20L2
SK-OV-3 = test system: SK-OV-3
HOP-92 = test system: HOP-92
DLD-1 = test system: DLD-1
HOP-18 = test system: HOP-18

Compound	GI50 (RPMI-8226)	GI50 (NCI-H226)	GI50 (ACHN)	GI50 (EKVX)	GI50 (TK-10)	GI50 (T47D)	GI50 (A498)	GI50 (PC-3)	GI50 (MDA-N)	GI50 (MDA-MB-231)	GI50 (HL-60)	GI50 (SR)	GI50 (BT-549)	GI50 (DU-145)	GI50 (XF498)	GI50 (KM-20L2)	GI50 (SK-OV-3)	GI50 (HOP-92)	GI50 (DLD-1)	GI50 (HOP-18)
CNC(=S)Nc1sc2c(c1C#N)CCCC2	> 75 µM (inactive)	> 75 µM (inactive)	> 75 µM (inactive)	> 75 µM (inactive)	> 75 µM (inactive)	> 75 µM (inactive)	> 75 µM (inactive)	> 75 µM (inactive)	> 75 µM (inactive)	> 75 µM (inactive)	> 75 µM (inactive)	> 75 µM (inactive)	> 75 µM (inactive)	> 75 µM (inactive)						
CCOC(=O)N1C=NC23C(c4ccccc4)C(c4ccccc4)C12C(=O)N(C)C(=O)N3C (stereo not drawn)	44.2 µM (inactive)		> 100 µM (inactive)	> 100 µM (inactive)	> 100 µM (inactive)		> 100 µM (inactive)				56.1 µM (inactive)	> 100 µM (inactive)			> 100 µM (inactive)	> 100 µM (inactive)	> 100 µM (inactive)	> 100 µM (inactive)	> 100 µM (inactive)	1.52 µM (inactive)
SC1=Nc2ccccc2-c2nc(-c3ccccc3)cc(-c3ccc(Br)cc3)c2C1	15.8 µM (inactive)	3.18 µM (inactive)		1.33 µM (inactive)		1.48 µM (inactive)	1.01 µM (active)	6.44 µM (inactive)	2.51 µM (inactive)	1.44 µM (inactive)	18.4 µM (inactive)		5.53 µM (inactive)	3.48 µM (inactive)			0.897 µM (active)	1.95 µM (inactive)		
Cn1c(=O)c(-c2ccccc2)c(N=[N+]=[N-])c2ccccc21		67 µM (inactive)	30.8 µM (inactive)		> 100 µM (inactive)	19.8 µM (inactive)	42.6 µM (inactive)	22.3 µM (inactive)	72.8 µM (inactive)	49.5 µM (inactive)		25.3 µM (inactive)	44.2 µM (inactive)	> 100 µM (inactive)			> 100 µM (inactive)	17.9 µM (inactive)		
CC1CC[P+](c2ccccc2)(c2ccccc2)c2c1ccc1ccccc21 (stereo not drawn)			9.62 µM (inactive)			0.883 µM (active)		0.948 µM (active)			1.28 µM (inactive)		0.764 µM (active)			2.5 µM (inactive)		1.45 µM (inactive)	3.74 µM (inactive)	2.52 µM (inactive)
Cc1cc2c(cc1C)[n+]([O-])c(C#N)c(Cl)[n+]2[O-]	12.3 µM (inactive)	21.7 µM (inactive)	10.5 µM (inactive)	6.59 µM (inactive)	14.4 µM (inactive)		19.7 µM (inactive)	13.2 µM (inactive)	17.5 µM (inactive)	19.1 µM (inactive)	7.78 µM (inactive)	3.82 µM (inactive)	15.6 µM (inactive)	14.9 µM (inactive)			16.4 µM (inactive)	16.2 µM (inactive)		
CCCCCCCCCCCCCC(=O)OC1C(O)C(CO)OC(OC)C1NC(=O)N(CCCl)N=O (stereo not drawn)	30.8 µM (inactive)	> 100 µM (inactive)	41.4 µM (inactive)		> 100 µM (inactive)							23.2 µM (inactive)			48.9 µM (inactive)	> 100 µM (inactive)			> 100 µM (inactive)	> 100 µM (inactive)
CC(C)=CCC/C(C)=C/C=C/C(C)=C/C1C[C@@]2(C(O)O1)[C@H](CCCO)/C(=C(/C)C=O)CC[C@]2(C)O (stereo partly drawn)		22.4 µM (inactive)	11.6 µM (inactive)	11.9 µM (inactive)	25.5 µM (inactive)						11.1 µM (inactive)	14.6 µM (inactive)			18.3 µM (inactive)	15.3 µM (inactive)	> 10 µM (inactive)	< 0.01 µM (active)	16.4 µM (inactive)	19.1 µM (inactive)
COc1ccc(-c2nc3ccc([N+](=O)[O-])cc3c(=O)[nH]2)cc1	> 61.4 µM (inactive)	23.2 µM (inactive)		66.1 µM (inactive)			29.3 µM (inactive)				> 100 µM (inactive)				22.7 µM (inactive)	> 100 µM (inactive)	13.6 µM (inactive)	22 µM (inactive)	88.3 µM (inactive)	> 62.4 µM (inactive)
C1CSCCSCSCCS1		> 100 µM (inactive)	> 100 µM (inactive)	> 100 µM (inactive)	> 100 µM (inactive)	> 100 µM (inactive)	> 100 µM (inactive)	> 100 µM (inactive)	> 100 µM (inactive)	> 100 µM (inactive)			> 100 µM (inactive)	> 100 µM (inactive)			> 100 µM (inactive)	> 100 µM (inactive)		
C[C@@H]1CC[C@H]2[C@H]1[C@H]1[C@@H](CC[C@]2(C)N=C=S)C1(C)C	17.2 µM (inactive)	17.7 µM (inactive)			41.3 µM (inactive)	45.5 µM (inactive)		26.7 µM (inactive)	1.96 µM (inactive)	30.1 µM (inactive)	19.1 µM (inactive)	22.1 µM (inactive)	18.7 µM (inactive)	23.4 µM (inactive)			49.3 µM (inactive)	30.7 µM (inactive)		
C#Cc1cccc(N2C(=O)c3c(c(-c4ccccc4)c(-c4ccc(Cc5ccc(-c6c(-c7ccccc7)c7c(c(-c8ccccc8)c6-c6ccccc6)C(=O)N(c6cccc(C#C)c6)C7=O)cc5)cc4)c(-c4ccccc4)c3-c3ccccc3)C2=O)c1	24.9 µM (inactive)		15.9 µM (inactive)	51.2 µM (inactive)	17.9 µM (inactive)						22.3 µM (inactive)				22.8 µM (inactive)	16.2 µM (inactive)		2.79 µM (inactive)	32.9 µM (inactive)	
c1cncc(O[Si](Oc2cccnc2)(Oc2cccnc2)Oc2cccnc2)c1		> 100 µM (inactive)		> 100 µM (inactive)	> 100 µM (inactive)							> 100 µM (inactive)			> 100 µM (inactive)		> 100 µM (inactive)		> 100 µM (inactive)	> 100 µM (inactive)
N#Cc1ccc(C2Oc3ccc(Cl)cc3C=C2[N+](=O)[O-])cc1 (stereo not drawn)	0.334 µM (active)	10.6 µM (inactive)	1.67 µM (inactive)	1.75 µM (inactive)	1.85 µM (inactive)	0.34 µM (active)	2.38 µM (inactive)	1.38 µM (inactive)	1.53 µM (inactive)	1.8 µM (inactive)	0.841 µM (active)	0.157 µM (active)	0.581 µM (active)	2.34 µM (inactive)			2.27 µM (inactive)	1.39 µM (inactive)		
